# Test results as given in the SangsterLogP compilation.
# Assay: method code SF, from PMID: 17665861
# Details: pH 7.4
row,Compound,logD
1,O=C1Nc2ccccc2C12SC1C(=NNC1c1ccccc1)N2c1ccc(Cl)cc1 (stereo not drawn),1.1
2,O=C1Nc2ccccc2C12SC1C(=NNC1c1ccc([N+](=O)[O-])cc1)N2c1ccc(Cl)cc1 (stereo not drawn),1.31
3,COc1ccc(C2NN=C3C2SC2(C(=O)Nc4ccccc42)N3c2ccccc2[N+](=O)[O-])cc1 (stereo not drawn),1.35
4,COc1ccccc1N1C2=NNC(c3ccccc3[N+](=O)[O-])C2SC12C(=O)Nc1ccccc12 (stereo not drawn),1.11
5,O=C1Nc2ccccc2C12SC1C(=NNC1c1ccccc1Cl)N2c1ccccc1 (stereo not drawn),1.22
6,O=C1Nc2ccccc2C12SC1C(=NNC1c1ccc([N+](=O)[O-])cc1)N2c1ccccc1[N+](=O)[O-] (stereo not drawn),1.45
7,O=C1Nc2ccccc2C12SC1C(=NNC1c1ccccc1)N2c1ccc(Br)cc1 (stereo not drawn),1.24
8,COc1ccc(C2NN=C3C2SC2(C(=O)Nc4ccccc42)N3c2ccc(Br)cc2)cc1 (stereo not drawn),1.4
9,O=C1Nc2ccccc2C12SC1C(=NNC1c1ccccc1Cl)N2c1cccc2ccccc12 (stereo not drawn),1.21
10,O=C1Nc2ccccc2C12SC1C(=NNC1c1ccc([N+](=O)[O-])cc1)N2c1ccc(Br)cc1 (stereo not drawn),1.35
11,O=C1Nc2ccccc2C12SC1C(=NNC1c1ccccc1)N2c1ccccc1[N+](=O)[O-] (stereo not drawn),1.14
12,COc1ccc(C2NN=C3C2SC2(C(=O)Nc4ccccc42)N3c2ccc(Cl)cc2)cc1 (stereo not drawn),1.41
13,O=C1Nc2ccccc2C12SC1C(=NNC1c1ccccc1Cl)N2c1ccccc1[N+](=O)[O-] (stereo not drawn),1.17
14,COc1ccc(C2NN=C3C2SC2(C(=O)Nc4ccccc42)N3c2ccccc2OC)cc1 (stereo not drawn),1.23
15,O=C1Nc2ccccc2C12SC1C(=NNC1c1ccccc1Cl)N2c1ccc(Cl)cc1 (stereo not drawn),1.31

# Next, values leading:
row,logD,Compound
1,1.17,O=C1Nc2ccccc2C12SC1C(=NNC1c1ccccc1[N+](=O)[O-])N2c1cccc2ccccc12 (stereo not drawn)
2,1.38,O=C1Nc2ccccc2C12SC1C(=NNC1c1ccccc1O)N2c1ccc(Br)cc1 (stereo not drawn)
3,1.45,O=C1Nc2ccccc2C12SC1C(=NNC1c1ccccc1Cl)N2c1ccc(Br)cc1 (stereo not drawn)
4,1.26,COc1ccccc1N1C2=NNC(c3ccc(Cl)cc3)C2SC12C(=O)Nc1ccccc12 (stereo not drawn)
5,1.25,O=C1Nc2ccccc2C12SC1C(=NNC1c1ccccc1O)N2c1ccccc1 (stereo not drawn)
6,1.14,COc1ccccc1N1C2=NNC(c3ccccc3O)C2SC12C(=O)Nc1ccccc12 (stereo not drawn)
7,1.19,COc1ccccc1N1C2=NNC(c3ccccc3)C2SC12C(=O)Nc1ccccc12 (stereo not drawn)
8,1.2,COc1ccc(C2NN=C3C2SC2(C(=O)Nc4ccccc42)N3c2cccc3ccccc23)cc1 (stereo not drawn)
